Source: ChEMBL document CHEMBL4706683 (J Med Chem, 2021)

Assays:
[1] = Selectivity index, ratio of IC50 for cytotoxicity against human HepG2 cells assessed to IC50 for antiplasmodial activity against synchronized ring stage Plasmodium falciparum 3D7 infected in human erythrocytes; type: toxicity, cell-based; details: read-out: Ratio IC50
[2] = Selectivity index, ratio of IC50 for cytotoxicity against human HEK293T cells assessed to IC50 for antiplasmodial activity against synchronized ring stage Plasmodium falciparum 3D7 infected in human erythrocytes; type: toxicity, cell-based; details: read-out: Ratio IC50
Plasmodium falciparum [3] = assay: Antiplasmodial activity against synchronized ring stage Plasmodium falciparum Dd2 infected in human erythrocytes assessed as reduction in parasite growth incubated for 72 hrs by Giemsa staining based light microscopic method; type: functional, organism-based; details: Dd2, Erythrocyte
HepG2 = assay: Cytotoxicity against human HepG2 cells assessed as reduction in cell viability incubated for 72 hrs by cell titer glo assay; type: cell-based; details: HepG2, 72 h
HEK-293T = assay: Cytotoxicity against human HEK293T cells assessed as reduction in cell viability incubated for 72 hrs by cell titer glo assay; type: cell-based
Plasmodium falciparum [4] = assay: Antiplasmodial activity against synchronized ring stage Plasmodium falciparum 3D7 infected in human erythrocytes assessed as reduction in parasite growth incubated for 72 hrs by Giemsa staining based light microscopic method; type: functional, organism-based; details: 3D7, Erythrocyte
Plasmodium falciparum [5] = assay: Antiplasmodial activity against Plasmodium falciparum GB4 infected in human erythrocytes assessed as reduction in parasite growth incubated for 72 hrs by Giemsa staining based light microscopic method; type: functional, organism-based; details: GB4, Erythrocyte
Plasmodium falciparum [6] = assay: Antiplasmodial activity against Plasmodium falciparum CP286 infected in human erythrocytes assessed as reduction in parasite growth incubated for 72 hrs by Giemsa staining based light microscopic method; type: functional, organism-based; details: CP286, Erythrocyte
Plasmodium falciparum [7] = assay: Antiplasmodial activity against Plasmodium falciparum C2A infected in human erythrocytes assessed as reduction in parasite growth incubated for 72 hrs by Giemsa staining based light microscopic method; type: functional, organism-based; details: Erythrocyte
Plasmodium falciparum [8] = assay: Antiplasmodial activity against artemisinin-resistant ring stage Plasmodium falciparum 6320 infected in human erythrocytes assessed as reduction in parasite growth incubated for 72 hrs by Giemsa staining based light microscopic method; type: functional, organism-based; details: Plasmodium falciparum, 6320, Erythrocyte
Plasmodium falciparum [9] = assay: Antiplasmodial activity against artemisinin-resistant Plasmodium falciparum 6218 infected in human erythrocytes assessed as reduction in parasite growth incubated for 72 hrs by Giemsa staining based light microscopic method; type: functional, organism-based; details: Plasmodium falciparum, 6218, Erythrocyte
[10] = Clearance in mouse liver microsomes incubated upto 45 mins in presence of NADPH by LC-MS/MS analysis; type: ADME, Microsome; details: read-out: CLH
[11] = Toxicity in Balb/c mouse infected with blood stage Plasmodium yoelii assessed as animal death at 60 mg/kg, ip QD for 5 consecutive days and measured on day 30; type: organism-based; details: in vivo, 120 h, time 5 day
[12] = Half life in mouse liver microsomes incubated upto 45 mins in presence of NADPH by LC-MS/MS analysis; type: ADME, Microsome

O=C(NO)c1cnc(N2CCC3(CCN(Cc4ccncc4)C3)CC2)nc1
selectivity ratio [1]: 193 | selectivity ratio [2]: 206 | IC50 (Plasmodium falciparum [3]): 22.8 nM | IC50 (HepG2): 3250 nM | IC50 (HEK-293T): 3470 nM | IC50 (Plasmodium falciparum [4]): 16.9 nM

O=C(NO)c1cnc(N2CCC3(CCN(Cc4ccsc4)C3)CC2)nc1
selectivity ratio [1]: 46 | selectivity ratio [2]: 36 | IC50 (Plasmodium falciparum [3]): 11.8 nM | IC50 (HepG2): 1060 nM | IC50 (HEK-293T): 831 nM | IC50 (Plasmodium falciparum [4]): 23.1 nM

O=C(NO)c1cnc(N2CCC3(CCN(Cc4ccoc4)C3)CC2)nc1
selectivity ratio [1]: 30 | selectivity ratio [2]: 46 | IC50 (Plasmodium falciparum [3]): 26.3 nM | IC50 (HepG2): 1050 nM | IC50 (HEK-293T): 1630 nM | IC50 (Plasmodium falciparum [4]): 35.3 nM

O=C(NO)c1cnc(N2CCC3(CCN(Cc4coc5ccccc45)C3)CC2)nc1
selectivity ratio [1]: 65 | selectivity ratio [2]: 42 | IC50 (Plasmodium falciparum [3]): 10.9 nM | IC50 (HepG2): 886 nM | IC50 (HEK-293T): 576 nM | IC50 (Plasmodium falciparum [4]): 13.6 nM

C[C@H]1[C@@H](O)O[C@@H]2O[C@@]3(C)CC[C@H]4[C@H](C)CC[C@@H]1[C@@]24OO3 [ARTENIMOL]
IC50 (Plasmodium falciparum [5]): 3.2 nM | IC50 (Plasmodium falciparum [6]): 5.6 nM | IC50 (Plasmodium falciparum [3]): 2.68 nM | IC50 (Plasmodium falciparum [7]): 3.7 nM | IC50 (Plasmodium falciparum [8]): 5.9 nM | IC50 (Plasmodium falciparum [9]): 5.2 nM | IC50 (Plasmodium falciparum [4]): 2.7 nM

Cn1nc(CN2CCC3(CCN(c4ncc(C(=O)NO)cn4)CC3)C2)c2ccccc21
selectivity ratio [1]: 29 | selectivity ratio [2]: 82 | IC50 (Plasmodium falciparum [3]): 4.9 nM | IC50 (HepG2): 139 nM | IC50 (HEK-293T): 395 nM | IC50 (Plasmodium falciparum [4]): 4.8 nM

O=C(NO)c1cnc(N2CCC3(CCN(Cc4cnc5ccccc5c4)C3)CC2)nc1
selectivity ratio [1]: 102 | selectivity ratio [2]: 26 | IC50 (Plasmodium falciparum [3]): 2.7 nM | IC50 (HepG2): 564 nM | IC50 (HEK-293T): 145 nM | IC50 (Plasmodium falciparum [4]): 5.54 nM

O=C(NO)c1cnc(N2CCC3(CCN(Cc4cccc5ccccc45)C3)CC2)nc1
selectivity ratio [1]: 21 | selectivity ratio [2]: 35 | IC50 (Plasmodium falciparum [3]): 6.7 nM | IC50 (HepG2): 91 nM | IC50 (HEK-293T): 154 nM | IC50 (Plasmodium falciparum [4]): 4.4 nM

O=C(NO)c1cnc(N2CCC3(CCN(Cc4cncc5ccccc45)C3)CC2)nc1
selectivity ratio [1]: 9 | selectivity ratio [2]: 37 | IC50 (Plasmodium falciparum [3]): 7.9 nM | IC50 (HepG2): 102 nM | IC50 (HEK-293T): 423 nM | IC50 (Plasmodium falciparum [4]): 11.5 nM

O=C(NO)c1cnc(N2CCC3(CCN(CC4CCCCC4)C3)CC2)nc1
selectivity ratio [1]: 160 | selectivity ratio [2]: 122 | IC50 (Plasmodium falciparum [3]): 14.7 nM | IC50 (HepG2): 1630 nM | IC50 (HEK-293T): 1250 nM | IC50 (Plasmodium falciparum [4]): 10.2 nM

O=C(NO)c1cnc(N2CCC3(CCN(Cc4cccc5ccncc45)C3)CC2)nc1
selectivity ratio [1]: 51 | selectivity ratio [2]: 26 | IC50 (Plasmodium falciparum [3]): 6.9 nM | IC50 (HepG2): 415 nM | IC50 (HEK-293T): 207 nM | IC50 (Plasmodium falciparum [4]): 8.1 nM

O=C(NO)c1cnc(N2CCC3(CCN(Cc4cc5ccccc5c5ccccc45)C3)CC2)nc1
selectivity ratio [1]: 20 | selectivity ratio [2]: 48 | IC50 (Plasmodium falciparum [3]): 8.5 nM | IC50 (HepG2): 204 nM | IC50 (HEK-293T): 482 nM | IC50 (Plasmodium falciparum [4]): 10.1 nM

O=C(NO)c1cnc(N2CCC3(CCN(Cc4ccccn4)C3)CC2)nc1
selectivity ratio [1]: 80 | selectivity ratio [2]: 106 | IC50 (Plasmodium falciparum [3]): 23.3 nM | IC50 (HepG2): 1300 nM | IC50 (HEK-293T): 1720 nM | IC50 (Plasmodium falciparum [4]): 16.2 nM

O=C(NO)c1cnc(N2CCC3(CCN(Cc4cccc5cccnc45)C3)CC2)nc1
selectivity ratio [1]: 28 | selectivity ratio [2]: 44 | IC50 (Plasmodium falciparum [3]): 3.4 nM | IC50 (HepG2): 221 nM | IC50 (HEK-293T): 351 nM | IC50 (Plasmodium falciparum [4]): 8 nM

O=C(NO)c1cnc(N2CCC3(CCN(Cc4csc5ccccc45)C3)CC2)nc1
selectivity ratio [1]: 18 | selectivity ratio [2]: 25 | IC50 (Plasmodium falciparum [3]): 3.6 nM | IC50 (HepG2): 79 nM | IC50 (HEK-293T): 109 nM | IC50 (Plasmodium falciparum [4]): 4.3 nM

O=C(NO)c1cnc(N2CCC3(CCN(Cc4ccnc5ccccc45)C3)CC2)nc1
selectivity ratio [1]: 33 | selectivity ratio [2]: 24 | IC50 (Plasmodium falciparum [3]): 14.7 nM | IC50 (HepG2): 482 nM | IC50 (HEK-293T): 351 nM | IC50 (Plasmodium falciparum [4]): 14.6 nM

Cl.Cn1cc(CN2CCC3(CCN(c4ncc(C(=O)NO)cn4)CC3)C2)c2cnccc21
IC50 (Plasmodium falciparum [5]): 9.5 nM | IC50 (Plasmodium falciparum [6]): 11.1 nM | selectivity ratio [1]: 248 | selectivity ratio [2]: 370 | IC50 (Plasmodium falciparum [3]): 4.9 nM | CLint scaled [10]: 43.5 mL/min/kg | IC50 (Plasmodium falciparum [7]): 11.7 nM | IC50 (HepG2): 982 nM | IC50 (Plasmodium falciparum [8]): 8.4 nM | IC50 (HEK-293T): 1460 nM | IC50 (Plasmodium falciparum [9]): 8.7 nM | Activity [11]: Toxic | half-life [12]: 2.09 h | IC50 (Plasmodium falciparum [4]): 4 nM

O=C(NO)c1cnc(N2CCC3(CCN(Cc4ccccc4)C3)CC2)nc1
selectivity ratio [1]: 32 | selectivity ratio [2]: 55 | IC50 (Plasmodium falciparum [3]): 7.6 nM | IC50 (HepG2): 217 nM | IC50 (HEK-293T): 375 nM | IC50 (Plasmodium falciparum [4]): 6.8 nM

O=C(NO)c1cnc(N2CCC3(CCN(Cc4cccc5ncccc45)C3)CC2)nc1
selectivity ratio [1]: 64 | selectivity ratio [2]: 48 | IC50 (Plasmodium falciparum [3]): 9.2 nM | IC50 (HepG2): 740 nM | IC50 (HEK-293T): 559 nM | IC50 (Plasmodium falciparum [4]): 11.6 nM

O=C(NO)c1cnc(N2CCC3(CCN(Cc4ccc5ccccc5n4)C3)CC2)nc1
selectivity ratio [1]: 47 | selectivity ratio [2]: 57 | IC50 (Plasmodium falciparum [3]): 2.98 nM | IC50 (HepG2): 320 nM | IC50 (HEK-293T): 393 nM | IC50 (Plasmodium falciparum [4]): 6.9 nM

O=C(NO)c1cnc(N2CCC3(CCN(Cc4ccc5ccc6cccc7ccc4c5c67)C3)CC2)nc1
selectivity ratio [1]: 64 | selectivity ratio [2]: 74 | IC50 (Plasmodium falciparum [3]): 19.5 nM | IC50 (HepG2): 1680 nM | IC50 (HEK-293T): 1970 nM | IC50 (Plasmodium falciparum [4]): 26.4 nM

O=C(NO)c1cnc(N2CCC3(CCN(Cc4cccnc4)C3)CC2)nc1
selectivity ratio [1]: 90 | selectivity ratio [2]: 104 | IC50 (Plasmodium falciparum [3]): 17.9 nM | IC50 (HepG2): 1830 nM | IC50 (HEK-293T): 2130 nM | IC50 (Plasmodium falciparum [4]): 20.4 nM

O=C(NO)c1cnc(N2CCC3(CCN(CC4CCCC4)C3)CC2)nc1
selectivity ratio [1]: 46 | selectivity ratio [2]: 90 | IC50 (Plasmodium falciparum [3]): 12.7 nM | IC50 (HepG2): 630 nM | IC50 (HEK-293T): 1220 nM | IC50 (Plasmodium falciparum [4]): 13.6 nM

O=C(NO)c1cnc(N2CCC3(CCN(Cc4c5ccccc5cc5ccccc45)C3)CC2)nc1
selectivity ratio [1]: 7 | selectivity ratio [2]: 18 | IC50 (Plasmodium falciparum [3]): 16.5 nM | IC50 (HepG2): 165 nM | IC50 (HEK-293T): 390 nM | IC50 (Plasmodium falciparum [4]): 22.3 nM

O=C(NO)c1cnc(N2CCC3(CCN(Cc4ccc5ccccc5c4)C3)CC2)nc1
selectivity ratio [1]: 56 | selectivity ratio [2]: 118 | IC50 (Plasmodium falciparum [3]): 3.16 nM | IC50 (HepG2): 228 nM | IC50 (HEK-293T): 484 nM | IC50 (Plasmodium falciparum [4]): 4.1 nM

O=C(NO)c1cnc(N2CCC3(CCN(Cc4cnc5ccccn45)C3)CC2)nc1
selectivity ratio [1]: 136 | selectivity ratio [2]: 245 | IC50 (Plasmodium falciparum [3]): 18.5 nM | IC50 (HepG2): 1960 nM | IC50 (HEK-293T): 3530 nM | IC50 (Plasmodium falciparum [4]): 14.4 nM

O=C(NO)c1cnc(N2CCC3(CCN(Cc4ccc(-c5ccccc5)cc4)C3)CC2)nc1
selectivity ratio [1]: 19 | selectivity ratio [2]: 21 | IC50 (Plasmodium falciparum [3]): 46.1 nM | IC50 (HepG2): 641 nM | IC50 (HEK-293T): 732 nM | IC50 (Plasmodium falciparum [4]): 34.5 nM
